Measured values from PubChem BioAssay AID256 (DTP/NCI, 2004).
“And” between values parts separate entries of the source, which are not always exact repeats. Identical values can stand only once. Inconclusive results and toxic doses are left out. How the source made its calls: active means survival T/C of 150% or more; inactive means T/C below 125% in these data.

Tested on: CD2F1 mice, L1210 leukemia ip, survival T/C
Assay: NCI In Vivo Anticancer Drug Screen. Data for tumor model L1210 Leukemia (intraperitoneal) in CD2F1 (CDF1) mice
Conditions: higher = longer survival
Outline: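 Ratio T/C, where T is the treated-group value and C the vehicle-dosed control value, from mice implanted with a transplantable tumor.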

[1] = endpoint: mean survival time, dose: 100.0 mg/kg/injection, schedule: Q01DX009 (ip), vehicle: saline with Tween-80
[2] = endpoint: mean survival time, dose: 200.0 mg/kg/injection, schedule: Q01DX009 (ip), vehicle: saline with Tween-80
[3] = endpoint: mean survival time, dose: 12.5 mg/kg/injection, schedule: Q01DX005 (ip), vehicle: water
[4] = endpoint: mean survival time, dose: 25.0 mg/kg/injection, schedule: Q01DX005 (ip), vehicle: water
[5] = endpoint: mean survival time, dose: 50.0 mg/kg/injection, schedule: Q01DX005 (ip), vehicle: water
[6] = endpoint: mean survival time, dose: 100.0 mg/kg/injection, schedule: Q01DX005 (ip), vehicle: water
[7] = endpoint: mean survival time, dose: 200.0 mg/kg/injection, schedule: Q01DX005 (ip), vehicle: water
[8] = endpoint: mean survival time, dose: 100.0 mg/kg/injection, schedule: Q04DX003 (ip), vehicle: saline with Tween-80
[9] = endpoint: mean survival time, dose: 200.0 mg/kg/injection, schedule: Q04DX003 (ip), vehicle: saline with Tween-80
[10] = endpoint: mean survival time, dose: 400.0 mg/kg/injection, schedule: Q04DX003 (ip), vehicle: saline with Tween-80
[11] = endpoint: mean survival time, dose: 12.5 mg/kg/injection, schedule: Q01DX009 (ip), vehicle: saline with Tween-80
[12] = endpoint: mean survival time, dose: 25.0 mg/kg/injection, schedule: Q01DX009 (ip), vehicle: saline with Tween-80
[13] = endpoint: mean survival time, dose: 50.0 mg/kg/injection, schedule: Q01DX009 (ip), vehicle: saline with Tween-80

Measured: T/C

OCC1OC(n2cnc3c2NC=NC[C@H]3O)CC1O (stereo partly drawn)
inactive: endpoint: mean survival time, dose: 0.13 mg/kg/injection, schedule: Q01DX005 (ip), vehicle: water 93 % of control | endpoint: mean survival time, dose: 0.13 mg/kg/injection, schedule: Q01DX009 (ip), vehicle: water 95 % of control | endpoint: mean survival time, dose: 0.2 mg/kg/injection, schedule: Q03HX024 (ip), vehicle: saline with Tween-80 102 % of control | endpoint: mean survival time, dose: 0.25 mg/kg/injection, schedule: Q01DX005 (ip), vehicle: water 108 % of control | endpoint: mean survival time, dose: 0.25 mg/kg/injection, schedule: Q01DX009 (ip), vehicle: water 101 % of control | endpoint: mean survival time, dose: 0.25 mg/kg/injection, schedule: Q04DX002 (ip), vehicle: water 94 % of control | endpoint: mean survival time, dose: 0.25 mg/kg/injection, schedule: Q04DX003 (ip), vehicle: water 99 % of control | endpoint: mean survival time, dose: 0.3 mg/kg/injection, schedule: Q03HX024 (ip), vehicle: saline with Tween-80 101 % of control | endpoint: mean survival time, dose: 0.4 mg/kg/injection, schedule: Q03HX024 (ip), vehicle: saline with Tween-80 115 % of control and 103 % of control | endpoint: mean survival time, dose: 0.5 mg/kg/injection, schedule: Q03HX024 (ip), vehicle: saline with Tween-80 116 % of control | endpoint: mean survival time, dose: 0.5 mg/kg/injection, schedule: Q04DX002 (ip), vehicle: water 101 % of control | endpoint: mean survival time, dose: 0.5 mg/kg/injection, schedule: Q04DX003 (ip), vehicle: water 96 % of control | endpoint: mean survival time, dose: 0.6 mg/kg/injection, schedule: Q03HX024 (ip), vehicle: saline with Tween-80 110 % of control | endpoint: mean survival time, dose: 0.75 mg/kg/injection, schedule: Q03HX024 (ip), vehicle: saline with Tween-80 111 % of control | endpoint: median survival time, dose: 0.1 mg/kg/injection, schedule: Q01DX009 (ip), vehicle: saline 101 % of control | endpoint: median survival time, dose: 0.13 mg/kg/injection, schedule: Q01DX009 (ip), vehicle: saline 102 % of control | endpoint: median survival time, dose: 0.21 mg/kg/injection, schedule: Q01DX009 (ip), vehicle: saline 113 % of control | endpoint: median survival time, dose: 0.25 mg/kg/injection, schedule: Q01DX009 (ip), vehicle: saline 104 % of control and 108 % of control | endpoint: median survival time, dose: 0.25 mg/kg/injection, schedule: Q03HX012 (ip), vehicle: saline 112 % of control | endpoint: median survival time, dose: 0.3 mg/kg/injection, schedule: Q01DX009 (ip), vehicle: saline 104 % of control | endpoint: median survival time, dose: 0.5 mg/kg/injection, schedule: Q01DX009 (ip), vehicle: saline 104 % of control and 110 % of control | endpoint: median survival time, dose: 0.5 mg/kg/injection, schedule: Q03HX012 (ip), vehicle: saline 113 % of control | endpoint: median survival time, dose: 1.0 mg/kg/injection, schedule: Q01DX009 (ip), vehicle: saline 108 % of control | endpoint: median survival time, dose: 2.0 mg/kg/injection, schedule: Q01DX009 (ip), vehicle: saline 102 % of control | endpoint: median survival time, dose: 3.0 mg/kg/injection, schedule: Q01DX005 (ip), vehicle: saline 95 % of control | endpoint: median survival time, dose: 3.0 mg/kg/injection, schedule: Q01DX009 (ip), vehicle: saline 109 % of control | endpoint: median survival time, dose: 4.0 mg/kg/injection, schedule: Q01DX005 (ip), vehicle: saline 100 % of control | endpoint: median survival time, dose: 5.0 mg/kg/injection, schedule: Q01DX005 (ip), vehicle: saline 97 % of control | endpoint: median survival time, dose: 6.0 mg/kg/injection, schedule: Q01DX005 (ip), vehicle: saline 97 % of control | endpoint: median survival time, dose: 7.0 mg/kg/injection, schedule: Q01DX005 (ip), vehicle: saline 104 % of control | endpoint: median survival time, dose: 10.0 mg/kg/injection, schedule: Q01DX009 (ip), vehicle: saline 109 % of control

CC1=N/C(=C/c2ccccc2)C(=O)O1
inactive: [1] 97 % of control | [2] 98 % of control | endpoint: mean survival time, dose: 400.0 mg/kg/injection, schedule: Q01DX009 (ip), vehicle: saline with Tween-80 88 % of control

OCC1OCOC(CO)C(O)C1O (stereo not drawn)
inactive: endpoint: mean survival time, dose: 100.0 mg/kg/injection, schedule: Q04DX002 (ip), vehicle: saline 114 % of control | endpoint: mean survival time, dose: 200.0 mg/kg/injection, schedule: Q04DX002 (ip), vehicle: saline 111 % of control | endpoint: mean survival time, dose: 400.0 mg/kg/injection, schedule: Q04DX002 (ip), vehicle: saline 100 % of control

CS(=O)(=O)OC(C(Br)CBr)C(OS(C)(=O)=O)C(Br)CBr (stereo not drawn)
inactive: endpoint: mean survival time, dose: 100.0 mg/kg/injection, schedule: Q01DX001 (ip), vehicle: Klucel (hydroxypropylcellulose) (HPC) 87 % of control | endpoint: mean survival time, dose: 200.0 mg/kg/injection, schedule: Q01DX001 (ip), vehicle: Klucel (hydroxypropylcellulose) (HPC) 90 % of control | endpoint: mean survival time, dose: 400.0 mg/kg/injection, schedule: Q01DX001 (ip), vehicle: Klucel (hydroxypropylcellulose) (HPC) 88 % of control

O=C(COc1ccc(F)cc1)OCCO
inactive: endpoint: mean survival time, dose: 100.0 mg/kg/injection, schedule: Q04DX002 (ip), vehicle: saline with Tween-80 105 % of control | endpoint: mean survival time, dose: 200.0 mg/kg/injection, schedule: Q04DX002 (ip), vehicle: saline with Tween-80 101 % of control | endpoint: mean survival time, dose: 400.0 mg/kg/injection, schedule: Q04DX002 (ip), vehicle: saline with Tween-80 105 % of control

COC(=O)c1ncn(C2OC(COC(C)=O)C(OC(C)=O)C2OC(C)=O)c1C(=O)OC (stereo not drawn)
inactive: [3] 87 % of control | [4] 94 % of control | [5] 90 % of control | [6] 100 % of control | [7] 96 % of control

Cc1ccc(S(=O)(=O)Nc2ccc(Cl)c(Cl)c2)cc1
inactive: endpoint: mean survival time, dose: 100.0 mg/kg/injection, schedule: Q01DX001 (ip), vehicle: saline with Tween-80 104 % of control | endpoint: mean survival time, dose: 100.0 mg/kg/injection, schedule: Q01DX009 (ip), vehicle: Klucel (hydroxypropylcellulose) (HPC) 105 % of control | endpoint: mean survival time, dose: 200.0 mg/kg/injection, schedule: Q01DX001 (ip), vehicle: saline with Tween-80 101 % of control | endpoint: mean survival time, dose: 200.0 mg/kg/injection, schedule: Q01DX009 (ip), vehicle: Klucel (hydroxypropylcellulose) (HPC) 95 % of control | endpoint: mean survival time, dose: 400.0 mg/kg/injection, schedule: Q01DX001 (ip), vehicle: saline with Tween-80 103 % of control

CC1CCN=C(CCC2CCCCC2=O)O1 (stereo not drawn)
inactive: [8] 96 % of control | [9] 101 % of control | [10] 96 % of control

OC(c1ccccc1)(c1ccccc1)c1ccncc1
inactive: [11] 91 % of control | [12] 87 % of control | [13] 91 % of control

Cn1c[n+](C)c2ncncc21
inactive: endpoint: mean survival time, dose: 3.8 mg/kg/injection, schedule: Q01DX005 (ip), vehicle: water 102 % of control | endpoint: mean survival time, dose: 7.5 mg/kg/injection, schedule: Q01DX005 (ip), vehicle: water 102 % of control | endpoint: mean survival time, dose: 15.0 mg/kg/injection, schedule: Q01DX005 (ip), vehicle: water 117 % of control | endpoint: mean survival time, dose: 30.0 mg/kg/injection, schedule: Q01DX005 (ip), vehicle: water 98 % of control | endpoint: mean survival time, dose: 60.0 mg/kg/injection, schedule: Q01DX005 (ip), vehicle: water 95 % of control

CCOc1ccccc1C1=CCCCCC1
inactive: [8] 98 % of control | [9] 107 % of control | [10] 103 % of control

COc1cc(Cl)ccc1NC(=O)Nc1ccc(C(=O)O)cc1
inactive: [13] 95 % of control | [1] 95 % of control | [2] 91 % of control

CC(N)C12CC3CC(CC(C3)C1)C2 (stereo not drawn)
inactive: endpoint: mean survival time, dose: 25.0 mg/kg/injection, schedule: Q01DX009 (ip), vehicle: saline 117 % of control | endpoint: mean survival time, dose: 50.0 mg/kg/injection, schedule: Q01DX009 (ip), vehicle: saline 98 % of control | endpoint: mean survival time, dose: 100.0 mg/kg/injection, schedule: Q01DX009 (ip), vehicle: saline 95 % of control

O=C(Nc1ccccc1C(=O)O)c1cc([N+](=O)[O-])cc([N+](=O)[O-])c1
inactive: [11] 95 % of control and 97 % of control | [12] 101 % of control and 103 % of control | [13] 100 % of control and 101 % of control | [1] 95 % of control and 97 % of control | [2] 96 % of control

CC(=O)Nc1ccc2ccccc2c1
inactive: [8] 103 % of control | [9] 93 % of control | [10] 104 % of control

Cn1c(=O)c2c(ncn2CCCNCC(O)c2ccc(O)c(CO)c2)n(C)c1=O (stereo not drawn)
inactive: [3] 96 % of control | [4] 96 % of control | [5] 100 % of control | [6] 96 % of control | [7] 98 % of control

CC1CCCN(N=Nc2ccccc2-c2nc(N)c3ccccc3n2)C1 (stereo not drawn)
inactive: endpoint: mean survival time, dose: 100.0 mg/kg/injection, schedule: Q04DX002 (ip), vehicle: Klucel (hydroxypropylcellulose) (HPC) 88 % of control | endpoint: mean survival time, dose: 200.0 mg/kg/injection, schedule: Q04DX002 (ip), vehicle: Klucel (hydroxypropylcellulose) (HPC) 92 % of control | endpoint: mean survival time, dose: 400.0 mg/kg/injection, schedule: Q04DX002 (ip), vehicle: Klucel (hydroxypropylcellulose) (HPC) 95 % of control

Fc1ccc(Nc2c3ccccc3nc3ccccc23)cc1
inactive: [1] 96 % of control

Cc1ccc(NC(=O)Oc2cc(C)c(Cl)c(C)c2Cl)c(C)c1
inactive: [13] 89 % of control | [1] 101 % of control | [2] 104 % of control
